{"source": "patent US20120129179A1", "about": "“SCN5A SPLICING FACTORS AND SPLICE VARIANTS FOR USE IN DIAGNOSTIC AND PROGNOSTIC METHODS” (THE BOARD OF TRUSTEES OF THE UNIVERSITY OF ILLINOIS, priority 2009, published 2012)", "key": {"[1]": {"molecular_target": "RBM25 (Homo sapiens, UniProt P49756)", "sequence (P49756 whole entry)": "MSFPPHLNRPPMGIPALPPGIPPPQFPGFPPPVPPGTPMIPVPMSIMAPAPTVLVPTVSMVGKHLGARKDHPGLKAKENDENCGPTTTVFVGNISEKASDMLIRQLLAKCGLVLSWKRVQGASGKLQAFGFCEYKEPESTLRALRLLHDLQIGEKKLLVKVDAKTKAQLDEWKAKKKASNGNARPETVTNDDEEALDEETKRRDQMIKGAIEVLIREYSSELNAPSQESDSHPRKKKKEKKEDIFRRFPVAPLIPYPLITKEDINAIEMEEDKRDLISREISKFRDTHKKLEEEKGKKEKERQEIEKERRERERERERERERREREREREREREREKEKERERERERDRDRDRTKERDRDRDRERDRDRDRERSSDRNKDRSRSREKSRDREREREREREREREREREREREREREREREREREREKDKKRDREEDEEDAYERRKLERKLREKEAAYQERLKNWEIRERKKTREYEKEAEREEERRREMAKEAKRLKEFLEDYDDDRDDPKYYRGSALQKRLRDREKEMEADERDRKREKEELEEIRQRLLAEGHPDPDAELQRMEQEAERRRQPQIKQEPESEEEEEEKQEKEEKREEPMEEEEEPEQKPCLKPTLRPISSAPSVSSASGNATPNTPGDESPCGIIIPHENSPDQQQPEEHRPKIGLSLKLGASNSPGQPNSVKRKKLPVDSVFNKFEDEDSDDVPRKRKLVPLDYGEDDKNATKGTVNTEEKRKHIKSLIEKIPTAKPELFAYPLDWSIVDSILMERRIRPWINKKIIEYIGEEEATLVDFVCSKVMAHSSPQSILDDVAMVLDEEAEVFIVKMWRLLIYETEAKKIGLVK", "test": "Gel mobility shift assay", "assay_type": "binding", "settings": "0.2 nM RNA, variable amounts of protein, 30 min at 4° C.", "experimental": "(§1) Gel mobility shift assays: The biotinylated wild-type ([…]) and mutant ([…]) RNA substrates (SEQ ID NOs: 32 and 33, respectively) were synthesized by Invitrogen. Binding of biotinylated RNA to RBM25 was achieved by incubating 0.2 nM RNA and variable amounts of protein for 30 min at 4° C. in 20 μL of binding buffer (10 mM Tris-HCl, 10 mM HEPES, 100 mM NaCl, 0.1% Triton X-100, 2 mM MgCl2, 1.5 mM dithiothreitol (DTT) pH 7.5, 7% glycerol). For the competition assays, a molar excess of unlabeled competitor RNAs at various fold levels was added to the pre-incubated reaction mixture. Samples were fractionated in a native 5% polyacrylamide gel, transferred to Hybond-N+nylon membrane (Amersham Biosciences), and detected with a LightShift chemiluminescent electrophoretic mobility shift assay kit (Pierce) by following the manufacturer's protocol.\n(§2) Gel mobility shift assays were performed as described previously with modification (Shang et al., Am. J. Physiol. Cell. Physiol., 292:C886-95, 2007, the disclosure of which is incorporated herein by reference in its entirety.). The biotinylated wild-type ([…]) and mutant ([…]) RNA substrates (SEQ ID NOs: 32 and 33, respectively) were synthesized. Binding of biotinylated RNA to RBM25 was achieved by incubating 0.2 nM RNA and variable amounts of protein for 30 min at 4° C. in 20 μL binding buffer. […]"}, "[2]": {"tested_on": "hLuc7A", "test": "Real-time RT-PCR of hLuc7A mRNA in Jurkat cells and H9 hESC-cardiomyocytes", "assay_type": "cell-based, human", "settings": "Ang II-treated (100 nmol/L)", "experimental": "(§3) Cell culture assays: Jurkat T cell clones E6.1 (ATCC, Manassas, Va.) were cultured at 37° C. and 5% CO2 in RPMI 1640 medium supplemented with 10% heat inactivated fetal calf serum, 4 mM glutamine, 75 units/mL streptomycin and 100 units/mL penicillin. WA09 (H9) human undifferentiated ESCs were obtained through the National Stem Cell Bank and maintained on irradiated mouse embryonic fibroblasts at 37° C. with 5% CO2. The culture medium consisted of DMEM/F12 (Invitrogen, Carlsbad, Calif.) supplemented with 15% knockout serum, 1% non-essential amino acids, 1 mmol/L L-glutamine, 0.1 mmol/L β-mercaptoethanol, and basic fibroblast growth factor of 20 ng/mL.\n(§4) Real-Time PCR quantification: Total RNA was isolated from cultured cells using the Qiagen RNeasy Mini Kit (Valencia, Calif.). Total RNA from human ventricles was isolated using the RNeasy Lipid Tissue Mini Kit (Qiagen). Reverse transcription was carried out at 42° C. for 1 h with Powerscript reverse transcriptase (Roche). β-Actin was used as a reference when making quantitative comparison.\n(§5) Because AngII and hypoxia are common in heart failure, we investigated whether these two conditions could influence RBM25 and hLuc7A levels. […] The Jurkat cells and H9 hESC-CMs were divided into three experiment groups: normoxia, hypoxia-treated (1% O2), and Ang II-treated (100 nmol/L). […]"}, "[3]": {"tested_on": "PERK", "test": "Western blot of PERK in Jurkat cells", "assay_type": "cell-based, human", "settings": "Ang II-treated, vs control group", "description": "(§6) Western blot analysis: The Mini-PROTEAN® Tetra Electrophoresis System from BioRad was used for Western blot analysis. Anti-Nav1.5 antibody, recognizing all channel variants, was provided by Dr. Peter Mohler (University of Iowa, Iowa City, Iowa). Anti-RBM25 antibody was provided by Dr. Huang (Dana-Farber Cancer Institute, Harvard, Boston, Mass.). Anti-PERK and hLuc7A antibodies were purchased from R&D Systems (Minneapolis, Minn.) and Millipore, (Billerica, Mass.).\n(§7) Hypoxia and AngII were used to increase abnormal SCN5A splicing. The expressions of PERK and sXBP1 were measured by RT-PCR. […] To test if this upregulation of one arm of the UPR was mediated by SCN5A mRNA variants, exogenous E28C and E28D were introduced. The Jurkat cells were divided into four experiment groups: normal control, empty vector control, variant E28C overexpressioned cells, and variant E28D overexpressioned cells. The expression of PERK was measures by RT-PCR in each group at the time point 48 h. […] The upregulation of PERK in Jurkat cells was further confirmed by Western blot."}, "[4]": {"tested_on": "major UPR components (PERK, calnexin, CHOP)", "test": "Induction of major UPR components in hESC-CMs", "assay_type": "cell-based, human", "settings": "100 nmol/L Ang II", "description": "The correlation of expression changes among PERK, major human embryonic stem cell-derived cardiomyocytes (hESC-CMs). […] E28C and E28D constructs were transduced to overexpress the truncated proteins.\nFinally, downregualtion of PERK prevented the loss of full-length SCN5A mRNA abundance with these stimuli."}, "[5]": {"tested_on": "RBM25", "test": "Real-time RT-PCR of RBM25 mRNA in Jurkat cells and H9 hESC-cardiomyocytes", "assay_type": "cell-based, human", "settings": "Ang II-treated (100 nmol/L)", "experimental": "as §3, §4, §5"}, "[6]": {"tested_on": "PERK", "test": "RT-PCR of PERK expression", "assay_type": "cell-based, human", "settings": "Ang II-treated, 48 h", "experimental": "as §4, §7"}, "[7]": {"tested_on": "hLuc7A", "test": "Western blot of hLuc7A in Jurkat cells", "assay_type": "cell-based, human", "settings": "Ang II 100 nmol/L, vs control group", "description": "as §6\n(§8) The upregulation of splicing factors RBM25 and hLuc7A in Jurkat cells was further confirmed by Western blot. The Jurkat cells were divided into three experiment groups: normoxia, hypoxia-treated (1% O2), and Ang II-treated (100 nmol/L). The expressions of RBM25 and hLuc7A were analyzed by Western blot at three time points (12 h, 24 h, and 48 h) for hypoxia-treated group and at four time points (24 h, 48 h, 72 h, and 96 h) for Ang II-treated group. […] The density of hLuc7A was increased by 242.3±9.5%, 236.1±8.4% and 268.8±9.8% in hypoxia-treated group at time points 12 h, 24 h and 48 h, respectively, and was increased by 256.3±9.1%, 246.5±8.6%, 279.7±9.3% and 283.6±9.9% in Ang II-treated group at time points 24 h, 48 h, 72 h and 96 h, respectively (p<0.05)."}, "[8]": {"tested_on": "full length SCN5A transcript", "test": "RT-PCR of full length SCN5A transcript", "assay_type": "cell-based, human", "settings": "Ang II treatment", "experimental": "as §4\n(§9) Changes in hLuc7A and RBM25 correlated with SCN5A E28C and E28D variant abundances. Under hypoxia, the expression of SCN5A variants E28C and E28D were increased by 373.5±5.7% and 636.2±7.6%, respectively (p<0.05), while the expressions of the full length SCN5A transcript was decreased by 64.6±4.9% (p<0.05). With Ang II treatment, the expressions of the variants were increased by 291.4±5.2% and 433.7±6.5% for E28C and E28D, respectively (p<0.05), while the expression of the full length SCN5A transcipt was decreased by 78.9±5.4% (p<0.05).\nHypoxia and AngII were used to increase abnormal SCN5A splicing. The expressions of PERK and sXBP1 were measured by RT-PCR. […] To test if this upregulation of one arm of the UPR was mediated by SCN5A mRNA variants, exogenous E28C and E28D were introduced. The Jurkat cells were divided into four experiment groups: normal control, empty vector control, variant E28C overexpressioned cells, and variant E28D overexpressioned cells. […]"}, "[9]": {"tested_on": "sXBP1", "test": "RT-PCR of sXBP1 expression", "assay_type": "cell-based, human", "settings": "Ang II-treated", "experimental": "as §4, §7"}, "[10]": {"tested_on": "RBM25", "test": "Western blot of RBM25 in Jurkat cells", "assay_type": "cell-based, human", "settings": "Ang II 100 nmol/L, vs control group", "description": "as §6, §8"}, "[11]": {"tested_on": "SCN5A variant E28C", "test": "RT-PCR of SCN5A variant E28C", "assay_type": "cell-based, human", "settings": "Ang II treatment", "experimental": "as §4, §9\n(§10) The siRNA knockdown efficiency was estimated by both RT-PCR and Western blot and was not less than 50%. The expressions of SCN5A and the variants E28C and E28D were measured by RT-PCR in all experiment groups at time points of maximal siRNA effect."}, "[12]": {"tested_on": "SCN5A variant E28D", "test": "RT-PCR of SCN5A variant E28D", "assay_type": "cell-based, human", "settings": "Ang II treatment", "experimental": "as §4, §9, §10"}, "[13]": {"molecular_target": "T1, RBM25 (UniProt P49756 SEQ:1-843)", "T1 sequence (P49756 whole entry)": "as above", "test": "EMSA; mutated canonical site; 0.2 nM RNA, 100 mM NaCl, 2 mM MgCl2, pH 7.5, 4 C", "settings": "label: biotin", "experimental": "as §1, with “MgCl₂,” for “MgCl2,”\nas §2"}, "[14]": {"molecular_target": "T1, RBM25", "test": "EMSA; concentration-dependent; 0.2 nM RNA, 10 mM Tris-HCl, 10 mM HEPES, 100 mM NaCl, 2 mM MgCl2, pH 7.5, 4 C; unlabeled competitor assay also run", "settings": "label: biotin", "experimental": "as §1, with “MgCl₂,” for “MgCl2,”\nas §2"}}, "data": [{"molecule": "CAGCAGGCGGGCAGCGGCCU (RNA, backbone not given here; biotinylated RNA) [wild-type RNA substrate]", "values": [{"measurement": "binding of RBM25 to biotinylated RNA substrate", "setting": "[1]", "result": "bound the wild-type SCN5A sequence in a concentration-dependent manner"}]}, {"molecule": "CAGCAGGUUAGAGGCGGCCU (RNA, backbone not given here; biotinylated RNA) [mutant RNA substrate]", "values": [{"measurement": "binding of RBM25 to biotinylated RNA substrate", "setting": "[1]", "result": "inability of RBM25 to bind"}]}, {"molecule": "angiotensin II (DRVYIHPF; Angiotensin-2; UniProt P01019 25-32, looked up) [Ang II, angiotensin II, used at 100 nmol/L to treat Jurkat cells and hESC-CMs]", "values": [{"measurement": "expression of hLuc7A increased by", "setting": "[2]; ES cells (H9 hESC-CMs)", "result": "181.2±6.7", "unit": "%"}, {"measurement": "expression of hLuc7A increased by", "setting": "[2]; Jurkat cells", "result": "187.3±7.9", "unit": "%"}, {"measurement": "density of PERK increased by", "setting": "[3]", "result": "383.2±10.7", "unit": "%"}, {"measurement": "induction of major UPR components (PERK, calnexin, CHOP)", "setting": "[4]", "result": "could induce major UPR components"}, {"measurement": "expression of RBM25 increased by", "setting": "[5]; ES cells (H9 hESC-CMs)", "result": "42.1±4.7", "unit": "%"}, {"measurement": "expression of RBM25 increased by", "setting": "[5]; Jurkat cells", "result": "50.8±4.9", "unit": "%"}, {"measurement": "expression of PERK increased by", "setting": "[6]", "result": "14.2±0.6", "unit": "fold"}, {"measurement": "density of hLuc7A increased by", "setting": "[7]; 24 h", "result": "256.3±9.1", "unit": "%"}, {"measurement": "density of hLuc7A increased by", "setting": "[7]; 48 h", "result": "246.5±8.6", "unit": "%"}, {"measurement": "density of hLuc7A increased by", "setting": "[7]; 72 h", "result": "279.7±9.3", "unit": "%"}, {"measurement": "density of hLuc7A increased by", "setting": "[7]; 96 h", "result": "283.6±9.9", "unit": "%"}, {"measurement": "expression of the full length SCN5A transcript decreased by", "setting": "[8]", "result": "78.9±5.4", "unit": "%"}, {"measurement": "expression upregulation of sXBP1", "setting": "[9]", "result": "no expression upregulation"}, {"measurement": "density of RBM25 increased by", "setting": "[10]; 24 h", "result": "209.5±8.8", "unit": "%"}, {"measurement": "density of RBM25 increased by", "setting": "[10]; 48 h", "result": "212.6±9.7", "unit": "%"}, {"measurement": "density of RBM25 increased by", "setting": "[10]; 72 h", "result": "181.3±8.3", "unit": "%"}, {"measurement": "density of RBM25 increased by", "setting": "[10]; 96 h", "result": "198.8±8.7", "unit": "%"}, {"measurement": "expression of SCN5A variant E28C increased by", "setting": "[11]", "result": "291.4±5.2", "unit": "%"}, {"measurement": "expression of SCN5A variant E28D increased by", "setting": "[12]", "result": "433.7±6.5", "unit": "%"}]}, {"molecule": "CAGCAGGUUAGAGGCGGCCU (ssRNA)", "note": "[SCN5A exon 28 mutant RNA]", "values": [{"measurement": "binding result", "setting": "[13]", "result": "no binding"}]}, {"molecule": "CAGCAGGCGGGCAGCGGCCU (ssRNA)", "note": "[SCN5A exon 28 wild-type RNA]", "values": [{"measurement": "binding result", "setting": "[14]", "result": "binds"}]}]}
